# From patent US10696692B2, “Amido-benzyl sulfone and sulfoxide derivates” (Forma TM, LLC, priority 2012, dated 2020)
# Where two headings read alike, the source gives them in different places.
# How the values were obtained:
# A2780 cells = test: Assay 2: In-Vitro Cell Proliferation Assay (A2780 cells, SRB readout, 72 hours); format: cell-based; details: read-out: Cell Proliferation (IC50);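 also: viable cells counted via sulforhodamine B staining, absorbance at 570 nm, after 72 h exposure at 37 °C, DMSO 0.1% as control, media-only background subtracted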
# NAMPT = NAMPT (Homo sapiens (Human), UniProt P43490); test: Assay 1: Biochemical Inhibition Assay (NAMPT enzymatic reaction, NMN quantified by mass spectrometry);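 also: recombinant His-tagged human NAMPT preincubated with compound 15 min, then reacted 30 min at rt with 1 µM NAM, 100 µM PRPP, 2.5 mM ATP, NMN product read by RapidFire MS, normalized to L-Cystathionine internal standard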
# NAMPT, sequence (P43490 whole entry): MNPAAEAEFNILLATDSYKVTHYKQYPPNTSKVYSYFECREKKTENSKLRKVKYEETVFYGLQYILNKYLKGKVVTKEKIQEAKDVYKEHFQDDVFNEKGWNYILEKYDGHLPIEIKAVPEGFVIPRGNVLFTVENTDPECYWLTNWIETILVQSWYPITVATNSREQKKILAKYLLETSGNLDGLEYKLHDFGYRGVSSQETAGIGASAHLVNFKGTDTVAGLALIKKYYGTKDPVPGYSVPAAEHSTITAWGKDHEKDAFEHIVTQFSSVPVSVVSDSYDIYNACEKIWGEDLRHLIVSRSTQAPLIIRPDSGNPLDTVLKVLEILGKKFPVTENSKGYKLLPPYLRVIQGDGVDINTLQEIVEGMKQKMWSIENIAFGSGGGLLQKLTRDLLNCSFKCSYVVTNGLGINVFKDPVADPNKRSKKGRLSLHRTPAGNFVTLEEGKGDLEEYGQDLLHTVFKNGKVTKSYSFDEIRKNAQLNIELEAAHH
# [1] = Homo sapiens, A2780, 72 h, A2780 cells, 72 hours, SRB
SMILES,IC50 (A2780 cells; [1]),IC50 (NAMPT; read-out: Biochemical (IC50)),"IC50 (A2780 cells; A2780 cells, 72 hours, SRB)","IC50 (A2780 cells; Homo sapiens, A2780, 72 h)",IC50 (NAMPT; Biochemical (IC50))
"CC(C)(C)OC(=O)N1CC[C@@H]2CN(S(=O)(=O)c3ccc(CNC(=O)c4ccc5nccn5c4)cc3)C[C@@H]21 (racemic) [Example 136, cis-5-(4-{[(Imidazo[1,2-a]pyridine-6-carbonyl)-amino]-methyl}-benzenesulfonyl)-hexahydropyrrolo[3,4-b]pyrrole-1-carboxylic acid tert-butyl ester]",0.0391 µM,0.0437 µM,,,
"CC(C)(C)OC(=O)N1CC2CN(S(=O)(=O)c3ccc(CNC(=O)c4ccc5nccn5c4)cc3)CC2C1 (racemic) [Example 137, cis-5-(4-{[(Imidazo[1,2-a]pyridine-6-carbonyl)-amino]-methyl}-benzenesulfonyl)-hexahydro-pyrrolo[3,4-c]pyrrole-2-carboxylic acid tert-butyl ester]",0.00423 µM,0.0105 µM,,,
"C[C@@H]1CN(S(=O)(=O)c2ccc(CNC(=O)c3ccc4nccn4c3)cc2)C[C@H]1O (racemic) [Example 139, trans-Imidazo[1,2-a]pyridine-6-carboxylic acid 4-(3-hydroxy-4-methyl-pyrrolidine-1-sulfonyl)-benzylamide]",0.0103 µM,0.0145 µM,,,
"O=C(NCc1ccc(S(=O)(=O)N2C3COCC2CC(O)C3)cc1)c1ccc2nccn2c1 (racemic) [Example 140, cis-Imidazo[1,2-a]pyridine-6-carboxylic acid 4-(7-hydroxy-3-oxa-9-aza-bicyclo[3.3.1]nonane-9-sulfonyl)-benzylamide]",,,,0.0141 µM,0.0464 µM
"O=C(NCc1ccc(S(=O)(=O)N2C[C@@H]3C[C@H]2CC3(F)F)cc1)c1ccc2nccn2c1 (racemic) [Example 141, cis-Imidazo[1,2-a]pyridine-6-carboxylic acid 4-(5,5-difluoro-2-aza-bicyclo[2.2.1]heptane-2-sulfonyl)-benzylamide]",0.0095 µM,0.0148 µM,,,
"CN1CC2CN(S(=O)(=O)c3ccc(CNC(=O)c4ccc5nccn5c4)cc3)CC(C1)O2 (racemic) [Example 142, cis-Imidazo[1,2-a]pyridine-6-carboxylic acid 4-(7-methyl-9-oxa-3,7-diaza-bicyclo[3.3.1]nonane-3-sulfonyl)-benzylamide]",0.0286 µM,0.113 µM,,,
"CN1CC2CCN(S(=O)(=O)c3ccc(CNC(=O)c4ccc5nccn5c4)cc3)C2C1 (racemic) [Example 143, cis-Imidazo[1,2-a]pyridine-6-carboxylic acid 4-(5-methyl-hexahydro-pyrrolo[3,4-b]pyrrole-1-sulfonyl)-benzylamide]",0.0204 µM,0.1 µM,,,
"CN1CCC2CN(S(=O)(=O)c3ccc(CNC(=O)c4ccc5nccn5c4)cc3)CC21 (racemic) [Example 144, cis-Imidazo[1,2-a]pyridine-6-carboxylic acid 4-(1-methyl-hexahydro-pyrrolo[3,4-b]pyrrole-5-sulfonyl)-benzylamide]",0.0096 µM,0.054 µM,,,
"O=C(NCc1ccc(S(=O)(=O)N2C[C@@H]3CC(F)(F)[C@@H]3C2)cc1)c1ccc2nccn2c1 (racemic) [Example 147, cis-Imidazo[1,2-a]pyridine-6-carboxylic acid 4-(6,6-difluoro-3-aza-bicyclo[3.2.0]heptane-3-sulfonyl)-benzylamide]",0.0125 µM,0.0137 µM,,,
"O=C(NCc1ccc(S(=O)(=O)C2CCCOC2)cc1)c1cc2cnccc2[nH]1 (racemic) [Example 154, 1H-Pyrrolo[3,2-c]pyridine-2-carboxylic acid 4-(tetrahydro-pyran-3-sulfonyl)-benzylamide]",0.0185 µM,0.0331 µM,,,
"O=C(NCc1ccc(S(=O)(=O)C2CCCOC2)cc1)c1cnc2[nH]ncc2c1 (racemic) [Example 155, 1H-Pyrazolo[3,4-b]pyridine-5-carboxylic acid 4-(tetrahydro-pyran-3-sulfonyl)-benzylamide]",0.176 µM,0.219 µM,,,
"CC1(O)CCN(S(=O)(=O)c2ccc(CNC(=O)c3ccc4nccn4c3)cc2)C1 (racemic) [Example 161, Imidazo[1,2-a]pyridine-6-carboxylic acid 4-(3-hydroxy-3-methyl-pyrrolidine-1-sulfonyl)-benzylamide]",0.0472 µM,0.0521 µM,,,
"CN1C2COCC1CN(S(=O)(=O)c1ccc(CNC(=O)c3ccc4nccn4c3)cc1)C2 (racemic) [Example 162, cis-Imidazo[1,2-a]pyridine-6-carboxylic acid 4-(9-methyl-3-oxa-7,9-diaza-bicyclo[3.3.1]nonane-7-sulfonyl)-benzylamide]",,,,0.0598 µM,0.122 µM
"CC(=O)N1C[C@@H]2C[C@H]1CN2S(=O)(=O)c1ccc(CNC(=O)c2ccc3nccn3c2)cc1 (racemic) [Example 163, cis-Imidazo[1,2-a]pyridine-6-carboxylic acid 4-(5-acetyl-2,5-diaza-bicyclo[2.2.1]heptane-2-sulfonyl)-benzylamide]",0.0581 µM,0.0815 µM,,,
"O=C(NCc1ccc(S(=O)(=O)N2CC3CC2CC3F)cc1)c1ccc2nccn2c1 (racemic) [Example 164, cis-Imidazo[1,2-alpyridine-6-carboxylic acid 4-(5-fluoro-2-aza-bicyclo[2.2.1]heptane-2-sulfonyl)-benzylamide]",0.0124 µM,0.0081 µM,,,
"CN1C[C@H]2C[C@@H](C1)N(S(=O)(=O)c1ccc(CNC(=O)c3ccc4nccn4c3)cc1)C2 (racemic) [Example 165, cis-Imidazo[1,2-a]pyridine-6-carboxylic acid 4-(3-methyl-3,6-diaza-bicyclo[3.2.1]octane-6-sulfonyl)-benzylamide]",0.022 µM,0.0958 µM,,,
"O=C(NCc1ccc(S(=O)(=O)N2CC[C@H]3C[C@H]32)cc1)c1ccc2nccn2c1 (racemic) [Example 166, cis-Imidazo[1,2-a]pyridine-6-carboxylic acid 4-(2-aza-bicyclo[3.1.0]hexane-2-sulfonyl)-benzylamide]",0.0096 µM,0.0172 µM,,,
"O=C(NCc1ccc(S(=O)(=O)N2CCOC3(CCOC3)C2)cc1)c1ccc2nccn2c1 (racemic) [Example 167, Imidazo[1,2-a]pyridine-6-carboxylic acid 4-(2,6-dioxa-9-aza-spiro[4.5]decane-9-sulfonyl)-benzylamide]",0.0088 µM,0.0237 µM,,,
"O=C(NCc1ccc(S(=O)(=O)C2CCCOC2)cc1)c1cc2ccncc2o1 (racemic) [Example 168, Furo[2,3-c]pyridine-2-carboxylic acid 4-(tetrahydro-pyran-3-sulfonyl)-benzylamide]",0.0503 µM,0.0304 µM,,,
"O=C(NCc1ccc(S(=O)(=O)C2CCCOC2)cc1)c1ccc2nccn2c1 (racemic) [Example 169, Imidazo[1,2-a]pyridine-6-carboxylic acid 4-(tetrahydro-pyran-3-sulfonyl)-benzylamide]",0.0199 µM,0.0329 µM,,,
"O=C(NCc1ccc(S(=O)(=O)N2CC3CCC(F)(F)C3C2)cc1)c1ccc2nccn2c1 (single isomer, unassigned) [Example 73, cis-Imidazo[1,2-a]pyridine-6-carboxylic acid 4-(4,4-difluoro-hexahydro-cyclopenta[c]pyrrole-2-sulfonyl)-benzylamide]",,0.003 µM,0.0008 µM,,

# Second part, led by results:
IC50 (A2780 cells; [1]),IC50 (NAMPT; read-out: Biochemical (IC50)),"IC50 (A2780 cells; A2780 cells, 72 hours, SRB)",SMILES,"IC50 (A2780 cells; Homo sapiens, A2780, 72 h)",IC50 (NAMPT; Biochemical (IC50))
0.354 µM,0.211 µM,,"O=C(NCc1ccc(S(=O)(=O)N2C[C@@H]3C[C@H]2CO3)cc1)c1cnc2[nH]ncc2c1 (racemic) [Example 172, cis-1H-Pyrazolo[3,4-b]pyridine-5-carboxylic acid 4-(2-oxa-5-aza-bicyclo[2.2.1]heptane-5-sulfonyl)-benzylamide]",,
0.0227 µM,0.0379 µM,,"O=C(NCc1ccc(S(=O)(=O)N2C[C@H]3CCC(F)(F)[C@H]3C2)cc1)c1cnc2[nH]ncc2c1 (racemic) [Example 176, cis-1H-Pyrazolo[3,4-b]pyridine-5-carboxylic acid 4-(4,4-difluoro-hexahydro-cyclopenta[c]pyrrole-2-sulfonyl)-benzylamide]",,
0.105 µM,0.0203 µM,,"O=C(NCc1ccc(S(=O)(=O)N2CC3CC(F)(F)CC3C2)cc1)c1cnc2[nH]ncc2c1 (racemic) [Example 177, cis-1H-Pyrazolo[3,4-b]pyridine-5-carboxylic acid 4-(5,5-difluoro-hexahydro-cyclopenta[c]pyrrole-2-sulfonyl)-benzylamide]",,
0.172 µM,0.133 µM,,"O=C(NCc1ccc(S(=O)(=O)N2C[C@@H]3CCO[C@@H]3C2)cc1)c1cnc2[nH]ncc2c1 (racemic) [Example 178, cis-1H-Pyrazolo[3,4-b]pyridine-5-carboxylic acid 4-(hexahydro-furo[2,3-c]pyrrole-5-sulfonyl)-benzylamide]",,
0.0311 µM,0.0076 µM,,"CC(C)CN1CCC([S+]([O-])c2ccc(CNC(=O)c3cnc4nccn4c3)cc2)CC1 (racemic) [Example 179, Imidazo[1,2-a]pyrimidine-6-carboxylic acid 4-(1-isobutyl-piperidine-4-sulfinyl)-benzylamide]",,
0.023 µM,0.13 µM,,"CC(C)CN1CCC([S+]([O-])c2ccc(CNC(=O)c3cnc4[nH]ncc4c3)cc2)CC1 (racemic) [Example 181, 1H-Pyrazolo[3,4-b]pyridine-5-carboxylic acid 4-(1-isobutyl-piperidine-4-sulfinyl)-benzylamide]",,
0.0056 µM,0.0263 µM,,"CC(C)CN1CCC([S+]([O-])c2ccc(CNC(=O)c3cc4cnccc4[nH]3)cc2)CC1 (racemic) [Example 182, 1H-Pyrrolo[3,2-c]pyridine-2-carboxylic acid 4-(l-isobutyl-piperidine-4-sulfinyl)-benzylamide]",,
0.00076 µM,0.00899 µM,,CC(C)(C)OC(=O)N1CCCC12CCCN(S(=O)(=O)c1ccc(CNC(=O)c3ccc4nccn4c3)cc1)CC2 (racemic) [Example 183],,
0.0058 µM,0.0142 µM,,"CC(C)CN1CCC([S+]([O-])c2ccc(CNC(=O)c3ccc4nccn4c3)cc2)CC1 (racemic) [Example 187, N-(4-(1-isobutylpiperidin-4-ylsulfinyl)benzyl)H-imidazo[1,2-a]pyridine-6-carboxamide]",,
